Patent publication US12150995B2, “IRAK degraders and uses thereof” (Kymera Therapeutics, Inc., priority 2020, dated 2024)

Target: T1, IRAK4 (Homo sapiens, UniProt Q9NWZ3)
T1 construct: endogenous in cells; host or cells: OCI-LY10
T1 sequence (Q9NWZ3 1-460): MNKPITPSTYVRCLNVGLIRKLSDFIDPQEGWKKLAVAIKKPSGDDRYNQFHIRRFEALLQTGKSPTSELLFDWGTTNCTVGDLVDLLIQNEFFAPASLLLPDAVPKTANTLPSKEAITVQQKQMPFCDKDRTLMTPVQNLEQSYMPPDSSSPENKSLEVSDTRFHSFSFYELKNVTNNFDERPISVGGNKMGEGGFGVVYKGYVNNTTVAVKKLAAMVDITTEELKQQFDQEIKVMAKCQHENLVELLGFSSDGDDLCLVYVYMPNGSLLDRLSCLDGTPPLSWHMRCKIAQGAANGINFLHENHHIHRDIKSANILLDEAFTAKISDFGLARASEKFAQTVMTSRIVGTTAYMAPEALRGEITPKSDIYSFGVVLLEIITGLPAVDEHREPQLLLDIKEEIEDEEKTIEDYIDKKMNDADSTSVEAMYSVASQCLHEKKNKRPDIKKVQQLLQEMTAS
Assay: IRAK4 MSD Degradation in OCI-LY10
Type: cell-based
Conditions: OCI-LY10 cells, Meso Scale Discovery, incubated 4 to 24 hours
Experimental: Degradation of IRAK4 in OCI-LY10 was quantitatively measured using Meso Scale Discovery technology. OCI-LY10 cells were seeded in 96-well plates (Corning 3799) with a density of 300,000 cells per well in 100 μL fresh media. Compounds were then added to the assay plates with a final top concentration of 1 to 10 μM in a 1:3 dilution series with total of 8 doses. The assay plates were then incubated for 4 to 24 hours at 37° C. under 5% CO2. The assay plates were then centrifuged for 5 minutes and the cell pellets were treated with 100 μL/well RIPA lysis buffer (Boston BioProducts BP-115D) with proteinase inhibitors. To prepare MSD assay plates (Meso Scale Discovery Catalog number L15XA-3), the plates were coated with 2 μg/mL capture antibody (mouse Anti-IRAK4 antibody [2H9], ab119942) in PBS, at 40 μL/well. The plates were then incubated overnight at 4° C., washed 3 times with 150 μL/well TBST buffer (Cell Signaling Technology, Catalog number 9997S) and blocked with 150 μL/well blocking buffer (Meso Scale Discovery Catalog number R93BA-4). Cell lysates were then added to MSD assay plates and the plates were incubated at room temperature for 1 hour. The plates were then washed 3 times with 150 μL/well TBST buffer and […] primary detection antibody (rabbit Anti-IRAK4 antibody [Y279], from Abcam. Catalog number ab32511, 1 μg/mL). The assay plates were then incubated at room temperature for 1 hour, washed 3 times with 150 μL/well TBST buffer and 254/well secondary detection antibody, SULFO-TAG anti-rabbit antibody were added (anti rabbit antibody from Meso Scale Discovery, Catalog number R32AB-1, 1 μg/mL). The assay plates were then incubated at room temperature for 1 hour, washed 3 times with 150 μL/well TBST buffer, and 150 μL/well MSD reading buffer (Meso Scale Discovery catalog number R92TC-2) was added. The plates were then analyzed by a MSD reader (Meso Scale Discovery, Model Quick Plex SQ 120). The data was then analyzed by software Prism 7.0 from GraphPad and the dose-depended IRAK4 degradation were fit using a three-parameter logistic equation to calculate DC50.
The letter codes for IRAK4 DC50 include: A (<0.01 μM); B (0.01-0.05 μM); C (0.05-0.1 μM); D (0.1-0.2 μM); and E (>0.2 μM).

SMILES	DC50 [nM]
COc1cc2nc([C@H]3CC[C@H](CN(C)CCCNc4cccc5c4C(=O)N(C4CCC(=O)NC4=O)C5=O)CC3)sc2cc1NC(=O)c1cncc(C)c1 (stereo partly drawn) [I-459]	> 200
COc1cc2nc([C@H]3CC[C@H](CN(C)CCCNc4cccc5c4C(=O)N(C4CCC(=O)NC4=O)C5=O)CC3)sc2cc1NC(=O)c1cncc(Cl)c1 (stereo partly drawn) [I-483]	> 200
CC(C)(O)c1cc2nc([C@H]3CC[C@H](C(=O)N4CC5(CC(CCNc6cccc7c6C(=O)N(C6CCC(=O)NC6=O)C7=O)C5)C4)CC3)sc2cc1NC(=O)c1cncc(C#N)c1 (stereo partly drawn) [I-448]	> 200
COc1cc2nn(CCN(C)C3CCN(c4cccc5c4n(C)c(=O)n5C4CCC(=O)NC4=O)CC3)cc2cc1NC(=O)c1cnn2cccnc12 (stereo not drawn) [I-21, N-[2-[2-[[1-[1-(2,6-dioxo-3-piperidyl)-3-methyl-2-oxo-benzimidazol-4-yl]-4-piperidyl]-methyl-amino]ethyl]-6-methoxy-indazol-5-yl]pyrazolo[1,5-a]pyrimidine-3-carboxamide]	100 to 200
CN(C[C@H]1CC[C@H](n2cc3cc(NC(=O)c4cccc(C(F)(F)F)n4)ncc3n2)CC1)C1CCN(c2ccc3c(N4CCC(=O)NC4=O)cncc3c2)CC1 [I-317]	100 to 200
CC(C)(O)c1cc2nc([C@H]3CC[C@H](CN4CCO[C@@H](CCCNc5cccc6c5C(=O)N(C5CCC(=O)NC5=O)C6=O)C4)CC3)sc2cc1NC(=O)c1cncc(C#N)c1 (stereo partly drawn) [I-454]	> 200
Cn1c(=O)n(C2CCC(=O)NC2=O)c2cc(Cl)cc(C3CCN(C[C@H]4CC[C@H](n5cc6cc(NC(=O)c7cccc(C(F)(F)F)n7)c(F)cc6n5)CC4)CC3)c21 (stereo partly drawn) [I-72]	10 to 50
COc1cc2nn([C@H]3CC[C@H](CN4CCC(CCNc5cccc6c5C(=O)N(C5CCC(=O)NC5=O)C6=O)CC4)CC3)cc2cc1NC(=O)c1cccc(C(C)(F)F)n1 (stereo partly drawn) [I-8]	10 to 50
COc1cc2nn([C@H]3CC[C@H](CN4CCN(c5ccc6c(N7CCC(=O)NC7=O)cncc6c5OC)CC4)CC3)cc2cc1NC(=O)c1cccc(C(F)(F)F)n1 [I-376]	10 to 50

The next lines start with the values.

DC50 [nM]	SMILES
< 10	Cn1c(=O)n(C2CCC(=O)NC2=O)c2c(F)ccc(C3CCN(C[C@H]4CC[C@H](n5cc6cc(NC(=O)c7cccc(C(F)(F)F)n7)c(F)cc6n5)CC4)CC3)c21 (stereo partly drawn) [I-25]
< 10	CC(C)Nc1cc(-c2ccc3cc(C#N)cnn23)ncc1C(=O)N[C@H]1CC[C@H](CN2CCC(c3ccc4c(N5CCC(=O)NC5=O)cncc4c3)CC2)CC1 [I-198]
10 to 50	COc1ccc2c(c1C1CCN(C[C@H]3CC[C@H](n4cc5cc(NC(=O)c6cccc(C(F)(F)F)n6)c(F)cc5n4)CC3)CC1)n(C)c(=O)n2C1CCC(=O)NC1=O (stereo partly drawn) [I-47]
10 to 50	CN(C[C@H]1CC[C@H](n2cc3cc(NC(=O)c4cccc(C(F)(F)F)n4)ccc3n2)CC1)C1CCN(c2ccc3c(N4CCC(=O)NC4=O)cncc3c2)CC1 [I-319]
< 10	COc1ccc2c(c1C1CCN(C[C@H]3CC[C@H](n4cc5cc(NC(=O)c6cccc(C(F)(F)F)n6)ncc5n4)CC3)CC1)n(C)c(=O)n2C1CCC(=O)NC1=O (stereo partly drawn) [I-83]
< 10	CN(CCCCNc1cccc2c1C(=O)N(C1CCC(=O)NC1=O)C2=O)C[C@H]1CC[C@H](c2nc3cc(C(C)(C)O)c(NC(=O)c4cccc(C#N)n4)cc3s2)CC1 (stereo partly drawn) [I-445]
< 10	CN(C[C@H]1CC[C@H](n2cc3cc(NC(=O)c4cccc(C(F)(F)F)n4)c(C#N)cc3n2)CC1)C1CCN(c2cccc3c2n(C)c(=O)n3C2CCC(=O)NC2=O)CC1 (stereo partly drawn) [I-239]
< 10	Cn1c(=O)n(C2CCC(=O)NC2=O)c2cccc(C3CCN(C[C@H]4CC[C@H](n5cc6cc(NC(=O)c7cnn8cc(C#N)cnc78)ccc6n5)CC4)CC3)c21 (stereo partly drawn) [I-95]
< 10	COc1cc2nn([C@H]3CC[C@H](CN(C)C4CCN(c5cccc6c5n(C)c(=O)n6C5CCC(=O)NC5=O)CC4)CC3)cc2cc1NC(=O)c1cncc(C#N)c1 (stereo partly drawn) [I-71, 5-cyano-N-[2-[4-[[[1-[1-(2,6-dioxo-3-piperidyl)-3-methyl-2-oxo-benzimidazol-4-yl]-4-piperidyl]-methyl-amino]methyl]cyclohexyl]-6-methoxy-indazol-5-yl]pyridine-3-carboxamide]
